Data from US9834535B2, “Sulfamate derivative compounds for use in treating or alleviating pain” (Bio-Pharm Solutions Co., Ltd., priority 2013, dated 2017).

Legend:
CFA-induced pain model = assay: Antiallodynic activity on Complete Freund's Adjuvant (CFA)-induced inflammatory pain model (von Frey); format: in vivo, Sprague-Dawley rats; conditions: Rattus norvegicus, ip, 0.5 h, read-out: CFA model: effect (%) at the concentration administered
Description: Male, Sprague-Dawley rats (200-220 g, Nara Bio, Korea) were habituated for 1 week before surgery and allowed free access to food and water throughout the experimentation. Room temperature and humidity were maintained at 24±2° C. and 50±10%, respectively.
CFA-induced inflammatory pain was induced by the procedure of Nagakura et al. (2003) and Gregory P. et al. (2010) with minor modifications. CFA (sigma, USA) was injected in the left plantar with a 100 ul volume under gaseous anesthesia with isoflurane a 4:4 flow ratio of NO2 Sham controls were injected with 100 ul of saline and vehicle controls were identical to CFA infusion model, except for administration of vehicles.
(§1) Tactile sensitivity (Mechanical allodynia) was evaluated using von Frey monofilaments before and after treatment, and animals were used withdrawal threshold value was less than 4 g. One week after surgery, CFA-infused animals (n=4˜6), sham-operated animals (n=12), and vehicle-operated animals (n=17) were tested for tactile sensitivity with von Frey monofilaments 3 trials in each animal. All Animals were placed in a stainless steel mashed chamber and habituated for 30 min in the test box. The tactile sensitivity for ipsilateral hind paw was measured using the up-and-down method (Dixon, 1980) with seven von Frey monofilaments (0.4, 1, 2, 4, 6, 8, and 15 g) to 3 trials. Tactile sensitivity test was followed by Dixon's method (Dixon, 1980). The 50% paw withdrawal threshold for each paw was calculated using the following formula: [Xth] log=[vFr] log+ky where [vFr] is the force of the last von Frey used, k=0.2249 which is the average interval (in log units) between the von Frey monofilaments, and y is a value that depends upon the pattern of withdrawal responses (Dixon, 1980).
[…] The test was performed peak time of efficacy (0.5 hr) after compound administration.
The relative values compared to the sham (% control) were calculated and shown in Table 4, which show an antiallodynic effect of the compound of Examples on CFA-induced pain model in rats.

[1] = tested on: Post operation-induced pain model; assay: Antiallodynic activity on post operative-induced pain model (von Frey); format: in vivo, Sprague-Dawley rats; conditions: 2 mg/kg, 0.5 h, rat, intraperitoneal
Description: Male Sprague-Dawley rats′(Orient Bio, Korea), 300˜320 g, total of 201 rats were used (details in Table 7). Rats were habituated at least 3 clays before surgery and free access to food and water (room temperature and humidity were maintained at 24±2° C. and 50±10%, respectively). The process of performing the post-operation model's surgery was adapted from Brennan et al (1996). At first, rats with allodynia (threshold valueless than 8 g) were excluded in Pre-von Frey Test. During the post-operation surgery, rats were anesthetized under gaseous anesthesia with 2% isoflurane. Rats were laid face down on a plate fixed at 37° C. to prevent against hypothermia. The ipsilateral plantar aspect (left side) of the hind paw was prepared in a sterile manner with a 10% povidone-iodine solution. […]
For efficacy measure, the threshold value of group C was assigned 100% efficacy, and the percentage of the threshold values of group A compared to group C (for each different dose level) were calculated as the efficacies. Base on these efficacy values, ED50 was calculated using log fitting. […]
For pain threshold test, all animals were placed in a stainless steel meshed chamber and habituated for 30 min in the test box. The tactile sensitivity of the ipsilateral hind paw was measured using the up-and-down method (Dixon, 1980) with seven von Frey monofilaments (0.4, 1, 2, 4, 6, 8, and 15 g) using 3 trials. […]

SNL model = assay: Antiallodynic activity on Chung model (SNL, spinal nerve ligation; von Frey); format: in vivo, Sprague-Dawley rats; conditions: rat, oral, 0.5 h; for ED50: von Frey
Description: Male. Sprague-Dawley rats (200-220 g, Orient Bio, Korea) were habituated for 1 week before the experiment and allowed free access to food and water throughout the experimentation. Room temperature and humidity were maintained at 24±2° C. and 50±10%, respectively. Neuropathic surgery (SNL, Spinal nerve ligation) model was clone as described in Kim and Chung (1992). Briefly, animal under gaseous anesthesia with isoflurane a 4:4 flow ratio of NO2. The left lumber spinal nerve L5 and L6 were isolated and tightly ligated with 4-0 silk thread. The wound was treated with a gentamicin antibiotics solution (4 mg/kg, 4 ul/g, bw), and the wound muscle was closed with cat cut chrom 4/0 thread and skin was closed dafilon 4/0 tread. Sham controls were prepared in the same manner as the spinal nerves were exposed, but no ligated L5 and L6 nerves. But, vehicle controls were identical to SNL model, except for administration of vehicles.
as §1, with “treatment” for “treatment,”, “SNL-operated” for “CFA-infused”, “(n=4˜10)” for “(n=12),”, “(n=4˜13)” for “(n=17)”
All animals were fasted 18 h before the administration of the compounds. The antiallodynic effect of the compounds were evaluated at the various dose (n=5˜6), orally administrated in a volume of 5 ul/g, bw in a vehicle of 30% (v/v) PEG 400 or 20% (v/v) Tween 80 or Saline. […]
The relative values compared to the sham group (% control) were calculated and shown in Table 5, which show an antiallodynic effect of the test compounds on SNL model in rats.

[2] = tested on: hot plate withdrawal latency; assay: Hot-plate test; format: in vivo, ICR mice; conditions: mouse, oral
Description: To examine the pain relief effect of the sulfamate derivative compounds, a hot-plate test was conducted in general pain animal model referring to Current Protocols in Neuroscience; Behavioral Neuroscience Unit 8.9.
ICR mice (male, 30-35 g: Orient Bio, Korea) were habituated before test in test room for 1 hour. Animals were fasted 2 hr before administration of compounds. […] All compounds were dissolved in a vehicle of 30% (v/v) PEG 400 or 20% (v/v) Tween 80. The control group was treated the vehicle without compounds.
[…] (Hu, X. et al, 2008), and then, measured as the withdrawal latency (cut-off time: 30 sec) time until the point when each mouse was taking off a paw from the plate, shaking, licking a paw or hind leg, or jumping from the plate.

[3] = tested on: tail-flick withdrawal latency; assay: Tail-flick test; format: in vivo, ICR mice; conditions: mouse, oral
Description: To examine the pain relief effect of the sulfamate compounds, a tail-flick test was conducted in general pain animal model referring to Current Protocols in Neuroscience; Behavioral Neuroscience Unit 8.9.
ICR mice (male, 25-30 g; Orient Bio, Korea) were habituated before test in test room for 1 hour. Animals were fasted 2 hr before administration of compounds. Each of Compound was orally administered at the close of 150 mg/kg, 10 ul/g, bw (n=7˜10/group). All compounds were dissolved in a vehicle of 30% (v/v) PEG 400 or 20% (v/v) Tween 80. The control group was treated the vehicle without compounds.
After the administration of compounds, the mice tail were put on a tail-flick analgesia meter. To avoid tissue damage, maximal exposure time to pain stimuli was restricted to 15 s. The withdrawal latency was measured as the time to the point when each mouse response to the stimulus. The relative values compared to the control (% control) were calculated.
The relative values compared to the sham were calculated and shown in Table 12, which show effect of the compound of examples on tail-flick test in […].

For `CC1(C)O[C@@H](COS([NH-])(=O)=O)[C@H](c2ccccc2Cl)O1.[Na+]` [Example 177, sodium ((((4S,5S)-5-(2-chlorophenyl)-2,2-dimethyl-1,3-dioxolan-4-yl)methoxy)sulfonyl)amide], the response vs control in vivo at 15 mg/kg (CFA-induced pain model) was 67.2% and the “Post Operation: effect (%) at the concentration administered” value [1] was “^#2 (64.4%, 0.5 h)”.
`CC1(C)O[C@@H](COS(N)(=O)=O)[C@H](c2ccccc2F)O1` [Example 16, ((4S,5S)-5-(2-fluorophenyl)-2,2-dimethyl-1,3-dioxolan-4-yl)methyl sulfamate] gave an ED50 (SNL model) of 24.6 mg/kg, an ED50 ([2]; 1 h) of 116 mg/kg and a tail-flick test: dose [3] of over 200 mg/kg.
For `CC1(C)O[C@@H](COS(N)(=O)=O)[C@H](c2ccccc2I)O1` [Example 28, ((4S,5S)-5-(2-iodophenyl)-2,2-dimethyl-1,3-dioxolan-4-yl)methyl sulfamate], the response vs control in vivo at 40 mg/kg (CFA-induced pain model; 40 mg/kg, rat, intraperitoneal) was 17.8%, the response vs control in vivo at 90 mg/kg (SNL model; 90 mg/kg, read-out: SNL model: effect (%) at the concentration administered) was 72.6% and the “Hot plate test: effect (%) at the concentration administered” value ([2]; 100 mg/kg) was “^#100 (126.4%)”. It also gave a tail-flick test: dose [3] of over 200 mg/kg.
In the case of `CC1(C)O[C@H](c2ccccc2F)[C@@H](COS(N)(=O)=O)O1` [Example 15, ((4R,5R)-5-(2-fluorophenyl)-2,2-dimethyl-1,3-dioxolan-4-yl)methyl sulfamate], the ED50 (SNL model) is reported as 69.8 mg/kg, the ED50 ([2]; 0.5 h) is reported as 113 mg/kg and the tail-flick test: dose [3] is reported as over 200 mg/kg.
With `CC1(C)O[C@H](c2ccccc2I)[C@@H](COS(N)(=O)=O)O1` [Example 27, ((4R,5R)-5-(2-iodophenyl)-2,2-dimethyl-1,3-dioxolan-4-yl)methyl sulfamate] the response vs control in vivo at 18 mg/kg (CFA-induced pain model; 18 mg/kg, rat, intraperitoneal) was 20.2% and the response vs control in vivo at 50 mg/kg (SNL model; 50 mg/kg, read-out: SNL model: effect (%) at the concentration administered) was 17.3%.
